Source: patent publication US7358267B2, “Bis-aryl thiazole derivatives” (Amgen Inc., priority 2001, dated 2008)

Columns and labels:
[1] = test system: UCP3; test: UCP3 RNA induction in rat L6 cells (QPCR); type: cell-based; parameters: key to UCP3 RNA induction, Induction at 10 μM: ++ denotes greater than 10-fold induction; + denotes 10-fold or less induction; — denotes no induction
Protocol: Table 1 provides QPCR data (ABI 7700 Sequence Detection System) for exemplary compounds of formula I evaluated for UCP3 RNA induction in L6 cells from rats. The assay is described in Example 14.4, below.
Rat UCP3 (L6 cells) QPCR Protocol
1. (Day1) Plate 300,000 L6 cells per well (24 well plate) in Minimum Essential Medium-Alpha Medium with 2% FBS and Antibiotic/Antimycotic Solution added. Incubate for 2 days and change to fresh medium (Day3). Incubate 1 more day.
2. (Day 4) Add compound at desired concentration. Incubate for 18-20 h. 2 wells per compound. 4-wells of DMSO controls per plate.
3. (Day 5) Prepare RNA from cells: • (1) Aspirate media and lyse cells directly on plate by adding 500 μL of Trizol Reagent (Gibco BRL) to each well and passing the lysate several times through a pipette. Transfer lysate to eppendorf tubes (combining the lysate from identical compound treatments). • (2) Add 200 μL of chloroform to the 1 mL of lysate. Vortex to mix and incubate at room temp. for 2-3 min. Spin samples in a microfuge at 12,000 rpm for 15 min. at 4° C. • (3) Transfer the aqueous phase to a fresh tube. Precipitate the RNA from the aqueous phase by adding 500 μL of isopropanol and mixing well. Incubate at −20° C. for at least 15 min. Pellet the RNA by spinning at 12,000 rpm for 10 min. at 4° C. • (4) Remove the supernatant and wash the RNA pellet with 500 μL of 75% ethanol. Spin at 10,000 rpm for 5 min. at 4° C. • (5) Remove the supernatant and allow pellet to air dry briefly. Dissolve RNA in 15 μL of RNase-free water. Store at −80° C. Electrophorese some RNA to check quality.
4. QPCR (50 μL reactions in 96 well MicroAmp Optical Plate): TaqMan Gold RT-PCR Reagents (PE catalog #N808-0232): OD RNA and dilute to 5 ng/μL in RNase-free water. All samples run in duplicate with UCP3 and m18S probe/primers
Add 40 μL of Reaction Mix to 10 μL of diluted RNA (50 ng total) on QPCR plate PCR Cycling Parameters • 48° C. 30 min. • 95° C. 10 min. • 40 cycles: 95° C. 15 sec. • 58° C. 1.5 min. QPCR Primers/Probes

[2] = molecular target: T1, RXRα (Homo sapiens, UniProt P19793); test: RXRα induction in HEK 293 cells (transient transfection, luciferase reporter); type: cell-based
T1 construct: expressed in transfected cells; host or cells: HEK 293 cells
T1 sequence (P19793 1-462): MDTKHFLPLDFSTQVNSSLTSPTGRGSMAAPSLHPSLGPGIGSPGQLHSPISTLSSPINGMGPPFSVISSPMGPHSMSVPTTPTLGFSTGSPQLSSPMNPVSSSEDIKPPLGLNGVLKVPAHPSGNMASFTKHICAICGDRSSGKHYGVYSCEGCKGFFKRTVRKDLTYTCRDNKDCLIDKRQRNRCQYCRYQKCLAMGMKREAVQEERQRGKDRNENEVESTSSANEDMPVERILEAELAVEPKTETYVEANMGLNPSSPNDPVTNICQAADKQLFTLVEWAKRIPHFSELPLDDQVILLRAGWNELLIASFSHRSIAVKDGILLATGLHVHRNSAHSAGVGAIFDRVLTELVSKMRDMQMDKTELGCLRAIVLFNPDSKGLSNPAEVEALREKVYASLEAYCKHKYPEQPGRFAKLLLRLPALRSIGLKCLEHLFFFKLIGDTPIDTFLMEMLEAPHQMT
Protocol: Table 2 provides QPCR data (ABI 7700 Sequence Detection System) for exemplary compounds of formula I evaluated for RXR induction in HEK 293 cells, following a general protocol, briefly described below. See Naeger et al. (1999) J. Biol. Chem. 274:1875-1878 for a related cell-based assay.
DNA constructs containing a luciferase reporter plasmid and another plasmid which contained an activation domain (e.g., RXRα) were transiently transfected into HEK 293 cells. The cells were treated with the compounds and luciferase activity was measured using a luminometer. Fold induction was determined by comparing the luciferase activity of treated cells to the activity of untreated cells.

SMILES | fold induction at 10 µM [1] | melting point [°C] | RXRα RNA induction at 1 μM [2] | RXRα RNA induction at 3 μM [2] | RXRα RNA induction at 10 μM [2] | UCP3 RNA induction, Induction at 10 μM [1]
Cc1c(C(=O)O)cnn1-c1nc(-c2ccc(C(F)(F)F)cc2)cs1 [Compound 2, 1-[4-(4-(Trifluoromethyl)phenyl)thiazol-2-yl]-5-methylpyrazole-4-carboxylic acid] | > 10 | 273 to 274 | + (+ denotes 5-fold or less induction) | + (+ denotes 5-fold or less induction) | + (+ denotes 5-fold or less induction) | 
Cc1c(C(=O)O)cnn1-c1nc(-c2ccc(Cl)c(Cl)c2)cs1 [Compound 3, 1-[4-(3,4-Dichlorophenyl)thiazol-2-yl]-5-methylpyrazole-4-carboxylic acid] | > 10 | 278 to 278.6 | + (+ denotes 5-fold or less induction) | + (+ denotes 5-fold or less induction) | + (+ denotes 5-fold or less induction) | 
Cc1c(C(=O)O)cnn1-c1nc(-c2cccc(Cl)c2)cs1 [Compound 4, 1-[4-(3-Chlorophenyl)thiazol-2-yl]-5-methylpyrazole-4-carboxylic acid] | > 10 | 258 to 258.3 |  |  |  | 
O=C(O)c1cnn(-c2nc(-c3cccc(C(F)(F)F)c3)cs2)c1C(F)(F)F [Compound 5, 1-[4-(3-(Trifluoromethyl)phenyl)thiazol-2-yl]-5-trifluoromethylpyrazole-4-carboxylic acid] | > 10 |  | + (+ denotes 5-fold or less induction) | + (+ denotes 5-fold or less induction) | + (+ denotes 5-fold or less induction) | 
O=C(O)c1cnn(-c2nc(-c3cccc(C(F)(F)F)c3)cs2)c1 [Compound 6, 1-[4-(3-(Trifluoromethyl)phenyl)thiazol-2-yl]pyrazole-4-carboxylic acid] | > 10 | 229.1 to 229.6 |  |  |  | 
Cc1c(C(=O)O)cnn1-c1nc(-c2ccccc2C(F)(F)F)cs1 [Compound 7, 1-[4-(2-(Trifluoromethyl)phenyl)thiazol-2-yl]-5-methylpyrazole-4-carboxylic acid] | > 10 | 215.5 to 216.5 | + (+ denotes 5-fold or less induction) | + (+ denotes 5-fold or less induction) | + (+ denotes 5-fold or less induction) | 
CCOC(=O)c1cnn(-c2nc(-c3cccc([N+](=O)[O-])c3)cs2)c1C [Compound 8, Ethyl 1-[4-(3-nitrophenyl)thiazol-2-yl]-5-methylpyrazole-4-carboxylate] |  |  | + (+ denotes 5-fold or less induction) | + (+ denotes 5-fold or less induction) | + (+ denotes 5-fold or less induction) | —
Cc1c(C(=O)O)cnn1-c1nc(-c2ccc3ccccc3c2)cs1 [Compound 9, 1-[4-(2-Naphthyl)thiazol-2-yl]-5-methylpyrazole-4-carboxylic acid] |  | 273.1 to 274.3 | + (+ denotes 5-fold or less induction) | + (+ denotes 5-fold or less induction) | + (+ denotes 5-fold or less induction) | —
Cc1c(C(=O)O)cnn1-c1nc(-c2cc(C(F)(F)F)cc(C(F)(F)F)c2)cs1 [Compound 10, 1-[4-(3,5-Bis(trifluoromethyl)phenyl)thiazol-2-yl]-5-methylpyrazole-4-carboxylic acid] | ≤ 10 | 260.9 to 261.4 | + (+ denotes 5-fold or less induction) | ++ (++ denotes greater than 5-fold induction) | + (+ denotes 5-fold or less induction) | 
CCOC(=O)c1cnn(-c2nc(-c3cccc(C(F)(F)F)c3)cs2)c1C [Compound 11, Ethyl 1-[4-(3-(trifluoromethyl)phenyl)thiazol-2-yl]-5-methylpyrazole-4-carboxylate] | ≤ 10 | 138 to 138.5 |  |  |  | 
O=C(O)c1cnn(-c2nc(-c3cccc([N+](=O)[O-])c3)cs2)c1C(F)(F)F [Compound 12, 1-[4-(3-Nitrophenyl)thiazol-2-yl]-5-trifluoromethylpyrazole-4-carboxylic acid] |  |  |  |  |  | —
COc1cccc(-c2csc(-n3ncc(C(=O)O)c3C)n2)c1 [Compound 14] |  |  | ++ (++ denotes greater than 5-fold induction) | ++ (++ denotes greater than 5-fold induction) | ++ (++ denotes greater than 5-fold induction) | 
CCc1c(C(=O)O)cnn1-c1nc(-c2cccc(C(F)(F)F)c2)cs1 [Compound 15] |  |  | + (+ denotes 5-fold or less induction) | ++ (++ denotes greater than 5-fold induction) | + (+ denotes 5-fold or less induction) | 
O=C(O)c1cnn(-c2nc(-c3cccc(C(F)(F)F)c3)cs2)c1C(=O)O [Compound 16] |  |  | + (+ denotes 5-fold or less induction) | + (+ denotes 5-fold or less induction) | + (+ denotes 5-fold or less induction) | 
Cc1c(C(=O)O)cnn1-c1nc(-c2ccccc2)cs1 [Compound 17] |  |  | + (+ denotes 5-fold or less induction) | + (+ denotes 5-fold or less induction) | + (+ denotes 5-fold or less induction) | 
Cc1c(C(=O)O)cnn1-c1nc(-c2ccc(Cl)cc2)cs1 [Compound 18] |  |  | + (+ denotes 5-fold or less induction) | ++ (++ denotes greater than 5-fold induction) | + (+ denotes 5-fold or less induction) | 
Cc1c(C(=O)O)cnn1-c1nc(-c2ccc(-c3ccccc3)cc2)cs1 [Compound 19] |  |  | + (+ denotes 5-fold or less induction) | + (+ denotes 5-fold or less induction) | + (+ denotes 5-fold or less induction) | 
Cc1c(C(=O)NCCC(=O)O)cnn1-c1nc(-c2cccc(C(F)(F)F)c2)cs1 [Compound 20] | ≤ 10 |  |  |  |  | 
